Experimental data reported in US7378435B2, “Aryl-isoxazole-4-carbonyl-indole-carboxylic acid amide derivatives” (Hoffmann-La Roche Inc., priority 2005, dated 2008).
Where two headings read alike, the source gives them in different places.

Biological target: T1, GABA A receptor α5β3γ2 (Homo sapiens, UniProt P18507+P31644)
T1 construct: expressed in transfected cells; host or cells: HEK293 (transiently transfected for the human receptors)
Experiment: [3H]flumazenil competition binding, human GABA A α5β3γ2 receptors expressed in HEK293 cells
Procedure: The affinity of compounds at GABA A receptor subtypes was measured by competition for [3H]flumazenil (85 Ci/mmol; Roche) binding to HEK293 cells expressing rat (stably transfected) or human (transiently transfected) receptors of composition α1β3γ2, α2β3γ2, α3β3γ2 and α5β3γ2.
Cell pellets were suspended in Krebs-tris buffer (4.8 mM KCl, 1.2 mM CaCl2, 1.2 mM MgCl2, 120 mM NaCl, 15 mM Tris; pH 7.5; binding assay buffer), homogenized by polytron for ca. 20 sec on ice and centrifuged for 60 min at 4° C. (50000 g; Sorvall, rotor: SM24=20000 rpm). The cell pellets were resuspended in Krebs-tris buffer and homogenized by polytron for ca. 15 sec on ice. Protein was measured (Bradford method, Bio-Rad) and aliquots of 1 mL were prepared and stored at −80° C.
Radioligand binding assays were carried out in a volume of […] (96-well plates) which contained […] of cell membranes, [3H]flumazenil at a concentration of 1 nM for α1, α2, α3 subunits and 0.5 nM for α5 subunits and the test compound in the range of […]. Nonspecific binding was defined by 10^−5 M diazepam and typically represented less than 5% of the total binding. Assays were incubated to equilibrium for 1 hour at 4° C. and harvested onto GF/C uni-filters (Packard) by filtration using a Packard harvester and washing with ice-cold wash buffer (50 mM Tris; pH 7.5). After drying, filter-retained radioactivity was detected by liquid scintillation counting. Ki values were calculated using Excel-Fit (Microsoft) and are the means of two determinations.

[1] = Table 1, human α5, [3H]flumazenil, mean of two determinations, read-out: Ki h
[2] = human α5β3γ2, 0.5 nM [3H]flumazenil, mean of two determinations, read-out: Ki[μM] hα5

Ki [1] [µM]	Ki [2] [µM]	Structure (SMILES)	Ki [µM]
		Cc1onc(-c2cccc(F)c2)c1C(=O)c1cn(C)c2cc(C(=O)NCC3CC3)ccc12 [Example 43, 3-[3-(3-Fluoro-phenyl)-5-methyl-isoxazole-4-carbonyl]-1-methyl-1H-indole-6-carboxylic acidcyclopropylmethyl-amide]	0.0667
		C#CCNC(=O)c1ccc2c(C(=O)c3c(-c4cccc(F)c4)noc3C)cn(C)c2c1 [Example 44, 3-[3-(3-Fluoro-phenyl)-5-methyl-isoxazole-4-carbonyl]-1-methyl-1H-indole-6-carboxylic acidprop-2-ynylamide]	0.0383
		Cc1onc(-c2cccc(F)c2)c1C(=O)c1cn(C)c2cc(C(=O)NC3CCOCC3)ccc12 [Example 45, 3-[3-(3-Fluoro-phenyl)-5-methyl-isoxazole-4-carbonyl]-1-methyl-1H-indole-6-carboxylic acid(tetrahydro-pyrann-4-yl)-amide]	0.049
0.111		Cc1onc(-c2cccc(F)c2)c1C(=O)c1cn(C)c2cc(C(=O)NC3CCCC3)ccc12 [Example 46, 3-[3-(3-Fluoro-phenyl)-5-methyl-isoxazole-4-carbonyl]-1-methyl-1H-indole-6-carboxylic acidcyclopentylamide]	
0.0253		Cc1onc(-c2cccc(F)c2)c1C(=O)c1cn(-c2ccccc2)c2cc(C(=O)NCc3ccco3)ccc12 [Example 47, 3-[3-(3-Fluoro-phenyl)-5-methyl-isoxazole-4-carbonyl]-1-phenyl-1H-indole-6-carboxylic acid(furan-2-ylmethyl)-amide]	
0.0138		Cc1onc(-c2cccc(F)c2)c1C(=O)c1cn(-c2ccccc2)c2cc(C(=O)NCC3CC3)ccc12 [Example 48, 3-[3-(3-Fluoro-phenyl)-5-methyl-isoxazole-4-carbonyl]-1-phenyl-1H-indole-6-carboxylic acidcyclopropylmethyl-amide]	
0.0085	0.0085	C#CCNC(=O)c1ccc2c(C(=O)c3c(-c4cccc(F)c4)noc3C)cn(-c3ccccc3)c2c1 [Example 49, 3-[3-(3-Fluoro-phenyl)-5-methyl-isoxazole-4-carbonyl]-1-phenyl-1H-indole-6-carboxylic acidprop-2-ynylamide]	
0.0098	0.0098	Cc1onc(-c2cccc(F)c2)c1C(=O)c1cn(-c2ccccc2)c2cc(C(=O)NC3CCOCC3)ccc12 [Example 50, 3-[3-(3-Fluoro-phenyl)-5-methyl-isoxazole-4-carbonyl]-1-phenyl-1H-indole-6-carboxylic acid(tetrahydro-pyran-4-yl)-amide]	
		Cc1onc(-c2cccc(F)c2)c1C(=O)c1cn(-c2ccccc2)c2cc(C(=O)NC3CCCC3)ccc12 [Example 51, 3-[3-(3-Fluoro-phenyl)-5-methyl-isoxazole-4-carbonyl]-1-phenyl-1H-indole-6-carboxylic acidcyclopentylamide]	0.0402
